Test results: the OPERA property sets (Mansouri et al. 2018)
In brackets after ≈: the same amount, converted by molar mass.

Conditions: not given

Row | SMILES | logP | solubility [mM]
1 | CCOc1cc(C=O)ccc1O | 1.58 | 
2 | CCCC(C)CCC(C)=O (stereo not drawn) | 2.92 | 
3 | CCOC(=O)CCC(=O)OCC | 1.2 | 
4 | CN(C)CCc1ccccn1 | 1.12 | 
5 | Oc1c(Cl)ccc(Cl)c1Cl |  | 2.28 (≈ 450 µg/mL)
6 | N[C@@H]1[C@H]2CN(c3nc4c(cc3F)c(=O)c(C(=O)O)cn4-c3ccc(F)cc3F)C[C@@H]12 | 0.31 | 
7 | C=CC(N)CCC(=O)O (stereo not drawn) | -2.16 | 
8 | CCOC(=O)c1ccccc1C(=O)OCC | 2.42 | 
9 | O=[N+]([O-])c1ccc2nc[nH]c2c1 | 1.5 | 
10 | CC(=O)/C=C/C1C(C)=CCCC1(C)C (stereo not drawn) |  | 0.551 (≈ 106 µg/mL)
11 | CCCCCCCCOC(=O)c1ccccc1C(=O)OCCCCCCCC | 8.1 | 

Continued, in another order:

Row | logP | SMILES | solubility [mM]
12 | 0.38 | CCC1(C)CC(=O)NC1=O (stereo not drawn) | 
13 | 2.7 | Cc1ccc(C(=O)CS(=O)(=O)c2ccccc2)cc1 | 
14 | 2.33 | NC(Cc1ccc(O)c(O)c1)C(=O)OCCc1ccc(Cl)cc1 (stereo not drawn) | 
15 | 0.46 | Clc1cccc(O[Si]23OCCN(CCO2)CCO3)c1 | 
16 | 1.69 | COc1cccc(OCCN(C)C)c1 | 
17 | 1.88 | O=C(O)CNC(=O)c1cccc(I)c1 | 
18 | -0.72 | NS(=O)(=O)c1cc2cc(CNCCO)sc2s1 | 
19 | 5.6 | Cc1cc(Cl)c(C(C)C)cc1Cl | 
20 | -0.23 | CC[C@H](C)C(=O)O[C@H]1C[C@H](O)C=C2C=C[C@H](C)[C@H](CC[C@@H](O)C[C@@H](O)CC(=O)[O-])[C@H]21.[Na+] | 

Same assay, conditions: 20 °C

Row | SMILES | solubility [mM]
21 | Clc1ccc(-c2ccc(Cl)cc2)cc1 | 0.000278 (≈ 0.062 µg/mL)
22 | CCNc1nc(NC(C)C)nc(OC)n1 | 8.52 (≈ 1800 µg/mL)
23 | COP(=O)(OC)OC(=CCl)c1cc(Cl)c(Cl)cc1Cl | 0.0301 (≈ 11 µg/mL)
24 | C=COCC(C)C | 30 (≈ 3000 µg/mL)
25 | CS(=O)(=O)F | 306 (≈ 30000 µg/mL)
26 | CN(C)c1ccncc1 | 622 (≈ 76000 µg/mL)

Same assay, conditions: 22 °C

Row | SMILES | solubility [mM]
27 | Clc1c(Cl)c(Cl)c2ccccc2c1Cl | 1.6e-05 (≈ 0.00426 µg/mL)

Same assay, conditions: 23 °C

Row | SMILES | solubility [mM]
28 | CCOc1cc(OP(=S)(OC)OC)nc(CC)n1 | 0.137 (≈ 40 µg/mL)

Same assay, conditions: 23.0 °C

Row | log10 OH rate constant (cm³/molecule/s) | SMILES
29 | -11.4 | CC(=O)CC(C)(C)O

Same assay, conditions: 24 °C

Row | SMILES | solubility [mM]
30 | CN(Cc1ccccc1)N=O | 30 (≈ 4510 µg/mL)

Same assay, conditions: 24.0 °C

Row | SMILES | log10 OH rate constant (cm³/molecule/s)
31 | C[Si](C)(C)O[Si](C)(C)C | -11.9
32 | COc1ccccc1OC | -10.5
33 | Clc1cccc2c1Oc1ccccc1O2 | -11.3

Same assay, conditions: 25 °C

Row | SMILES | solubility [mM]
34 | C[Si](C)(C)O[Si](C)(C)C | 0.00573 (≈ 0.93 µg/mL)
35 | CCC(C)=NO | 1150 (≈ 100000 µg/mL)
36 | CCCCCN(CCCCC)CCCCC | 0.0928 (≈ 21.1 µg/mL)
37 | CON(C)C(=O)Nc1ccc(Cl)c(Cl)c1 | 0.301 (≈ 75 µg/mL)
38 | CCCCCO[N+](=O)[O-] | 2.7 (≈ 360 µg/mL)
39 | O=C([O-])CF.[Na+] | 11100
40 | CCOP(=S)(OCC)SCSC(C)(C)C | 0.0176 (≈ 5.07 µg/mL)
41 | CCOC(C)=O | 908 (≈ 80000 µg/mL)
42 | N[C@@H]1[C@H]2CN(c3nc4c(cc3F)c(=O)c(C(=O)O)cn4-c3ccc(F)cc3F)C[C@@H]12 | 0.0295 (≈ 12.3 µg/mL)
43 | OCC(CO)(CO)COCC(CO)(CO)CO | 11 (≈ 2800 µg/mL)
44 | c1ccoc1 | 147 (≈ 10000 µg/mL)
45 | BrC1CCCCC1 | 5.08 (≈ 828 µg/mL)
46 | CCCCCCCCOC(=O)c1ccccc1C(=O)OCCCCCCCC | 5.63e-05 (≈ 0.022 µg/mL)

Results, then the compound that gave them:

Row | solubility [mM] | SMILES
47 | 0.331 (≈ 59 µg/mL) | CCCCOC(=O)c1ccccc1
48 | 0.00398 (≈ 1.02 µg/mL) | c1ccc2nc(-c3ccc4ccccc4n3)ccc2c1
49 | 50.3 (≈ 7000 µg/mL) | O=C(O)c1ccc[n+]([O-])c1
50 | 0.18 (≈ 42 µg/mL) | CN(C)C(=O)Nc1ccc(Cl)c(Cl)c1
51 | 335 (≈ 46000 µg/mL) | OCCNc1ccccc1
52 | 0.00146 (≈ 0.28 µg/mL) | Cc1ccc2c(ccc3ccccc32)c1
53 | 12.1 (≈ 2000 µg/mL) | CCN(CCO)c1ccccc1
54 | 26.9 (≈ 8330 µg/mL) | CC(C)(C)NCC(O)COc1cccc2c1C[C@H](O)[C@H](O)C2 (stereo partly drawn)

Same assay, conditions: 25.0 °C

Row | SMILES | log10 OH rate constant (cm³/molecule/s)
55 | CC(F)(F)CC(F)(F)F | -14.1
56 | FC(F)C(F)(F)C(F)(F)C(F)F | -14.3
57 | Clc1ccc(-c2ccc(Cl)cc2)cc1 | -11.7
58 | FC(F)Br | -14
59 | O=CCCl | -11.5
60 | FC(F)C(F)(F)OCC(F)(F)F | -13
61 | FC(F)=C(F)OC(F)(F)F | -11.4
62 | CC(=O)C(C)C | -11.5
63 | c1ccc2[nH]ccc2c1 | -9.81
64 | COCC(C)O (stereo not drawn) | -10.7
65 | c1cc2c3c(cccc3c1)CC2 | -10.2
66 | CCOCC=O | -10.8
67 | CCC(C)Cl (stereo not drawn) | -11.6
68 | CCC(CC)(CC)CC | -11.3
69 | CCBr | -12.5
70 | c1ccc2c(c1)oc1ccccc12 | -11.4
71 | C=C(C)C(=O)OC | -10.6
72 | COC(=O)C(C)O (stereo not drawn) | -11.6
73 | COCC(C)OC (stereo not drawn) | -10.5
74 | C=COC(C)=O | -10.6
75 | CC12CCC(CC1)C(C)(C)O2 | -11

Same assay, conditions: 26 °C

Row | SMILES | solubility [mM]
76 | Clc1cc2oc3cc(Cl)c(Cl)cc3c2cc1Cl | 2.26e-06 (≈ 0.000692 µg/mL)

Same assay, conditions: 27.0 °C

Row | log10 OH rate constant (cm³/molecule/s) | SMILES
77 | -10.3 | Cc1ccc(C=O)o1
78 | -9.69 | Cc1cccc(O)c1O
